# Assay results as given in US20220023302A1, “PDE9 INHIBITORS FOR TREATING SICKLE CELL DISEASE” (Imara Inc., priority 2019, published 2022).
# “Also recorded” adds a separate entry of the source.
# What was measured:
# Townes mouse model = assay: Plasma sE-Sel in the Townes mouse model; assay type: in vivo; settings: Townes mice treated with Compound 1
# Procedure: Endothelial E-selectin (E-Sel) slows leukocyte rolling, which is followed by stationary adhesion and transmigration of activated leukocytes. Plasma levels of sE-Sel, produced by the enzymatic cleavage of the extracellular domains of E-Sel, are increased in SCD patients and this may be mediated by its interaction with leukocytes. In the Townes mouse model, plasma sE-Sel is increased 144% ([…]) over levels seen in control mice ([…]).
# Townes mice = assay: Myeloid and neutrophil inflammatory markers in the lungs of Townes mice; assay type: in vivo, mouse
# Description: (§1) This appears to be accompanied by a Compound 1-mediated reduction in disease specific cell activation including 67% lower levels of myeloid derived myeloperoxidase (MPO) and 26% lower levels of neutrophil derived arginase in the lung (FIG. 1). […] This was quantified by real time monitoring of the green florescent patches in the microchannel, as neutrophils are labeled by a specific Alexa Fluor® 488-conjugated antibody before the perfusion step. […] Under these conditions, adhesion was reduced an average of 54% (p=0.03) (FIG. 2). Mechanistically, not willing to be bound by any theory, Compound 1 may target the stationary adhesion step of neutrophils as it lowered expression levels of key neutrophil integrins including CD11a [reduced 23% (p=0.002)], CD11b [reduced 39% (ns)) and CD18 [reduced 47% (p=0.03)) (FIG. 3).
# SCD models = assay: Circulating levels of PMNs in SCD models; assay type: in vivo, murine
# Description: as §1, with “Recently several drugs targeting white cell binding to endothelial cells, have been advancing in clinical studies in patients. Compound 1 is able to increase expression of fetal hemoglobin in patient derived cells and murine models of SCD and reduce vessel occlusion in SCD murine models. In this Example, the ability of Compound 1 to reduce the adhesive properties of neutrophils from SCD patients and reduce sE-Selectin (sE-Sel) and markers of PMN activation in murine SCD models was studied. […] This appears” for “This appears”
# SCD patient neutrophils = assay: In vitro adhesion assay mimicking blood flow (microchannels lined with activated HMEC-1); assay type: cell-based, human
# Description: as §1
# [1] = system: CD11a, CD11b and CD18 integrins on SCD patient neutrophils; assay: Integrin expression on SCD patient neutrophils; assay type: cell-based, human
# Description: as §1
# [2] = system: Erythroid cell lines (K562, UT-7); assay: In vitro studies in erythroid cell lines vs. HU; assay type: cell-based
# Description: The effects of Compound 1 is compared with HU in in vitro studies in erythroid cell lines (K562 and UT-7).
# [3] = system: SCD patient derived cell lines; assay: Study in SCD patient derived cell lines; assay type: cell-based, human
# Townes SCD model = assay: 28 day Townes SCD model, Compound 1 vs. HU (RBC/WBC); assay type: in vivo, mouse
# Procedure: In one study, Compound 1 and therapeutic doses of HU (25 mg/kg and 50 mg/kg) were tested side-by-side in the 28 day Townes SCD model (oral daily). […] MPO is a monocyte inflammatory marker. Plasma nitrate is improved nitrate levels. Lower levels of plasma nitrate may contribute to hemolysis in SCD patients.
# [4] = system: In-vivo SCD: vaso occlusion; assay: In-vivo SCD: vaso occlusion (WBC)
# C57B1/6J = assay: In-vivo cognition: C57B1/6J
# Solubility in water = assay type: physicochemical
# Procedure: Per taste testing results, bitterness could be detected for all these samples. […] At this level of solubility, masking the taste of Compound 1 in an oral solution is challenging. Even high level of sucralose was evaluated and taste of the oral solution remained bitter. […] Furthermore, strawberry flavor was chosen, because patients like its sweet taste and it has a good solubility in water. Orange juice or lime juice may be used to dilute the oral solution and to mask the bitter taste before administration.
# [5] = Stability of Compound 1 in solution as a function of pH; assay type: physicochemical
# Description: The pH of the solution affects the compound stability and solubility. […] In some embodiments, pharmaceutical composition has a pH from about 3.0 to about 7.0. In some embodiments, the pharmaceutical composition has a pH from about 3.0 to about 6.0, or from about 5.5 to about 6.5. In some embodiments, pH of the pharmaceutical composition is about 5.5, about 5.6, about 5.7, about 5.8, about 5.9, about 6.0, about 6.1, about 6.2, about 6.3, about 6.4, or about 6.5. In some embodiments, pH of the pharmaceutical composition is about 5.5. In some embodiments, pH of the pharmaceutical composition is about 6.0.
# There is no obvious excipient that can mask its taste. Another major challenge was to optimize the excipients quantity. […] In some embodiments, a pharmaceutical composition of pH above 5.5 comprising Compound 1 is provided. […] Extensive formulation development and manufacturing process studies were carried out. Other challenges are the excipient compatibility and stability of the API in solution.
# [6] = Clinical safety and tolerability; assay type: in vivo, human
# Procedure: In some embodiments, Compound 1, or a pharmaceutically acceptable salt, solvate, or hydrate thereof is administered to a patient, wherein Compound 1, or a pharmaceutically acceptable salt, solvate, or hydrate thereof, is administered once a day with food. […] The incidence and severity of the side effects, such as nausea, emesis and headache, can be reduced when Compound 1, or a pharmaceutically acceptable salt, solvate, or hydrate thereof, is taken with food.
# Therefore, Population A is designed to explore the PD dose response in patients as well as the tolerability of the 200 mg dose level in sickle cell patients who have tolerated the 100 mg dose well.
# [7] = Nonclinical data on concomitant administration of HU with Compound 1; assay type: in vivo
# Procedure: Results from Population B are intended to provide information on Compound 1 when administered concomitantly with HU, both of which increase HbF levels through alternative biochemical pathways that increase intracellular cGMP. Because there are no clinical data to support administration of Compound 1 concomitantly with HU, patients in Population B initiate Compound 1 dosing at the low dose (30 mg or 50 mg) used in Population A and only escalate to the 100 mg dose if the 50 mg dose has been safe and tolerated for 4 weeks.
structure (smiles),measurement,setting,value
"C[C@@H]1CN(Cc2ncccn2)C[C@H]1c1cn2c(C3CCOCC3)ncc2c(=O)[nH]1 [Compound 1, 6-[(3S,4S)-4-methyl-1-(pyrimidin-2-ylmethyl)pyrrolidin-3-yl]-3-tetrahydropyran-4-yl-7H-imidazo[1,5-a]pyrazin-8-one]",plasma sE-Sel levels,"Townes mouse model; control mice 57, Townes mice 139",92 ng/mL
same,plasma sE-Sel elevation over control mice,Townes mouse model; untreated Townes 144%,61%
same,myeloid and neutrophil inflammatory markers in the lungs,"Townes mice; Townes mice, FIG. 1 legend",reduces
same,lower levels of myeloid derived myeloperoxidase (MPO) in the lung,"Townes mice; lung, FIG. 1",67%
same,lower levels of neutrophil derived arginase in the lung,"Townes mice; lung, FIG. 1",26%
same,circulating levels of PMNs,SCD models,reduced
same,reduction of neutrophil adhesion to activated HMEC-1,"SCD patient neutrophils; 30 min incubation with 30 μM, average, p=0.03, FIG. 2",54%
same,adhesion of SCD patient neutrophils to endothelial cells,SCD patient neutrophils; added to whole blood samples prior to perfusion,reduced adhesions significantly and in a dose dependent manner; also recorded: reduces adhesion
same,"expression of CD11a, CD11b and CD18 integrins",[1]; FIG. 3 legend,reduces expression
same,CD11b expression reduced,"[1]; ns, FIG. 3",39%
same,CD11a expression reduced,"[1]; p=0.002, FIG. 3",23%
same,CD18 expression reduced,"[1]; p=0.03, FIG. 3",47%
same,cGMP levels vs. HU,[2],increased cGMP levels compared with HU; also recorded: Increased cGMP levels vs. HU;
same,"induction of HbF (RNA, protein, etc.)",[2],"induction of HbF (RNA, protein, etc.)"
same,F-cells %,[3],F-cells % increase
same,HbF,[3],increases in HbF
same,key measures of RBC pathology (sickled RBCs; unconjugated bilirubin; % HbF cells; LDH activity) vs. HU,"Townes SCD model; 28 day, oral daily, Compound 1 30 mg/kg, HU 25 and 50 mg/kg, FIG. 4",outperforms HU in a statistically significant manner
same,measures of WBC pathology vs. HU,"Townes SCD model; 28 day, oral daily, Compound 1 30 mg/kg, HU 25 and 50 mg/kg, FIG. 5",outperforms HU in a statistically significant manner
same,RBC/WBC parameters vs. HU,Townes SCD model; Townes,Statistically better results than HU
same,vaso occlusion (WBC) vs. HU,[4],Better results vs. HU; combo
same,CNS activity,C57B1/6J,No CNS activity
same,solubility,Solubility in water,~1000 mg/mL
same,stability at a lower pH,[5],unstable
same,"effect of food on adverse event profile (nausea, emesis, headache)",[6]; once a day with food,dramatically reduce the adverse event profile
same,safety and tolerability,"[6]; once daily doses of 30, 50, 100, and 200 mg, nonclinical and healthy volunteer clinical data",safe and well tolerated
same,increase of Compound 1 exposure by concomitant HU,[7],do not suggest
